Assay results from patent US20240376099A1, “COMPOUNDS AND COMPOSITIONS AS INHIBITORS OF ENDOSOMAL TOLL-LIKE RECEPTORS” (Novartis AG, priority 2016, published 2024).

What follows are compounds tested against T1, TLR9 (Homo sapiens, UniProt Q9NR96) (assay: huPBMC TLR9 Antagonist IFNα Assay). Conditions: human PBMCs stimulated with ODN2216 0.3 μM, 14-16 hrs; IFNα2b AlphaLISA read-out.
T1 construct: Fresh blood was collected from normal human donors; endogenous in cells; host or cells: human PBMCs from fresh donor blood
T1 sequence (Q9NR96 26-1032): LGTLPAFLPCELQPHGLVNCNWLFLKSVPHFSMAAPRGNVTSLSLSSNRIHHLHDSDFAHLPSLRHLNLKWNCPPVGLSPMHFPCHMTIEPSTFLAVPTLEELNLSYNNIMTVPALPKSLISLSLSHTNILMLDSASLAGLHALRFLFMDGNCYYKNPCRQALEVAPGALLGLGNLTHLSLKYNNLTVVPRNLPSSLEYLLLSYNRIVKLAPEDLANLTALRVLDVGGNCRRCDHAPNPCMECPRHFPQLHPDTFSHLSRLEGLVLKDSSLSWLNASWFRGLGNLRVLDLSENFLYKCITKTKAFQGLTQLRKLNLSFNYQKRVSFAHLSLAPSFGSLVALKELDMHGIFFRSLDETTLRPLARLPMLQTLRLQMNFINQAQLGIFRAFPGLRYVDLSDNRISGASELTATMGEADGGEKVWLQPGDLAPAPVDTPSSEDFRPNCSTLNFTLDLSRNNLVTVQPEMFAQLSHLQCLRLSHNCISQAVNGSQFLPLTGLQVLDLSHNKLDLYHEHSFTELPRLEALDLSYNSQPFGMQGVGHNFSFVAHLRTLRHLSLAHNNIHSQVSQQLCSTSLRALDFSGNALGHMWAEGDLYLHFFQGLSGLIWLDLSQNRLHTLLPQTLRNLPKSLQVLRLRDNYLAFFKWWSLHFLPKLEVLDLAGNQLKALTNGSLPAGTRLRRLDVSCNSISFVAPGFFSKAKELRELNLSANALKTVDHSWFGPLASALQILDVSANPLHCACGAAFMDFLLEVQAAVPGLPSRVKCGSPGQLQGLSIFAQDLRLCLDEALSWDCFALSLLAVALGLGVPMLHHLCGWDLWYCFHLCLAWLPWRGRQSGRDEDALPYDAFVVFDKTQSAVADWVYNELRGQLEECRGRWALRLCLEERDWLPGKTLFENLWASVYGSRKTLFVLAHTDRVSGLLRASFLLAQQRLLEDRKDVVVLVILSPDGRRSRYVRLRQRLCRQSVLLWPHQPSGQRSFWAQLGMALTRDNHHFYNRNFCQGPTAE
Assay type: cell-based
Outline: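 Human PBMCs from fresh donor blood (150,000 cells/well) stimulated 14–16 h at 37 °C with DOTAP-complexed ssRNA40 (final 1 μg/ml for TLR8, 10 μg/mL for TLR7) or ODN2216 (final 0.3 μM, TLR9), 0.25% DMSO, ten-point 1/3 compound dilutions. Supernatant IL-6 read by HTRF (TLR8); IFNα by IFNα2b AlphaLISA (TLR7/TLR9).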
Compound `Cc1cc(N2CCc3c(c(C)nn3CC34CCC(NC(=O)C5CNC5)(CC3)CC4)C2)c2cnn(C)c2n1` [compound 131, N-(4-((5-(1,6-dimethyl-1H-pyrazolo[3,4-b]pyridin-4-yl)-3-methyl-4,5,6,7-tetrahydro-1H-pyrazolo[4,3-c]pyridin-1-yl)methyl)bicyclo[2.2.2]octan-1-yl)azetidine-3-carboxamide] has an IC50 of over 10000 nM. Compound `CCN(C)CC(=O)NC12CCC(Cn3nc(C)c4c3CCN(c3cc(C)nc5c3cnn5C)C4)(CC1)CC2` [compound 132, N-(4-((5-(1,6-dimethyl-1H-pyrazolo[3,4-b]pyridin-4-yl)-3-methyl-4,5,6,7-tetrahydro-1H-pyrazolo[4,3-c]pyridin-1-yl)methyl)bicyclo[2.2.2]octan-1-yl)-2-(ethyl(methyl)amino)acetamide] has an IC50 of 260 nM. For `[2H]C([2H])([2H])N(CC(=O)NC12CCC(Cn3nc(C)c4c3CCN(c3cc(C)nc5c3cnn5C)C4)(CC1)CC2)C([2H])([2H])[2H]` [compound 134, 2-(bis(trideuteromethyl)amino)-N-(4-((5-(1,6-dimethyl-1H-pyrazolo[3,4-b]pyridin-4-yl)-3-methyl-4,5,6,7-tetrahydro-1H-pyrazolo[4,3-c]pyridin-1-yl)methyl)bicyclo[2.2.2]octan-1-yl)acetamide], the IC50 was 299 nM. Compound `Cc1cc(N2CCc3c(c(C)nn3CC34CCC(NCC5(CO)COC5)(CC3)CC4)C2)c2cnn(C)c2n1` [compound 137, (3-(((4-((5-(1,6-dimethyl-1H-pyrazolo[3,4-b]pyridin-4-yl)-3-methyl-4,5,6,7-tetrahydro-1H-pyrazolo[4,3-c]pyridin-1-yl)methyl)bicyclo[2.2.2]octan-1-yl)amino)methyl)oxetan-3-yl)methanol] has an IC50 of 1280 nM. `CCn1ncc2c(N3CCc4c(c(C)nn4CC45CCC(NC(=O)[C@@H]6COCCN6)(CC4)CC5)C3)cc(C)nc21` [compound 141, (S)-N-(4-((5-(1-ethyl-6-methyl-1H-pyrazolo[3,4-b]pyridin-4-yl)-3-methyl-4,5,6,7-tetrahydro-1H-pyrazolo[4,3-c]pyridin-1-yl)methyl)bicyclo[2.2.2]octan-1-yl)morpholine-3-carboxamide] gave an IC50 of 5170 nM. With `CNCCC(=O)NC12CCC(Cn3nc(C)c4c3CCN(c3cc(C)nc5c3cnn5C)C4)(CC1)CC2` [compound 142, N-(4-((5-(1,6-dimethyl-1H-pyrazolo[3,4-b]pyridin-4-yl)-3-methyl-4,5,6,7-tetrahydro-1H-pyrazolo[4,3-c]pyridin-1-yl)methyl)bicyclo[2.2.2]octan-1-yl)-3-(methylamino)propanamide] the IC50 was over 6590 nM. With `Cc1cc(N2CCc3c(c(C)nn3CC34CCC(NC5CCC5)(CC3)CO4)C2)c2cnn(C)c2n1` [compound 143, N-cyclobutyl-1-((5-(1,6-dimethyl-1H-pyrazolo[3,4-b]pyridin-4-yl)-3-methyl-4,5,6,7-tetrahydro-1H-pyrazolo[4,3-c]pyridin-1-yl)methyl)-2-oxabicyclo[2.2.2]octan-4-amine] the IC50 was 841 nM. `Cc1nn(CC23CCC(NC4CCC4)(CC2)CC3)c2c1CN(c1ccnc(-c3ccccc3)c1)CC2` [compound 144, N-cyclobutyl-4-((3-methyl-5-(2-phenylpyridin-4-yl)-4,5,6,7-tetrahydro-1H-pyrazolo[4,3-c]pyridin-1-yl)methyl)bicyclo[2.2.2]octan-1-amine] gave an IC50 of 139 nM. `Cc1cc(N2CCc3c(c(C)nn3CC34CCC(NC(=O)OC(C)(C)C)(CC3)C4)C2)c2cnn(C)c2n1` [compound 148, tert-butyl (4-((5-(1,6-dimethyl-1H-pyrazolo[3,4-b]pyridin-4-yl)-3-methyl-4,5,6,7-tetrahydro-1H-pyrazolo[4,3-c]pyridin-1-yl)methyl)bicyclo[2.2.1]heptan-1-yl)carbamate] was tested, and the IC50 was over 10000 nM.
